Tested on: rabbit skeletal myofibrils (approximately 90% fast fibers)
Experiment: Activation of fast skeletal myofibrils (PUMA coupled-enzyme ATPase assay, AC1.4)
Assay type: biochemical
Settings: concentration at which the compound increased enzymatic activity by 40%, calcium at pCa25

Mean AC1.4 (Table 2)	Compound	other results
	Fc1cccnc1C1(CNc2nnc(-c3nccs3)s2)CCC1 [N-((1-(3-fluoropyridin-2-yl)cyclobutyl)methyl)-5-(thiazol-2-yl)-1,3,4-thiadiazol-2-amine]	Mean AC1.4 (Table 3): B (B=1-10 uM)
	Cn1nc(NC2(c3ncccc3F)CCC2)nc1-c1cc(Br)ccc1F [5-(5-bromo-2-fluorophenyl)-N-(1-(3-fluoropyridin-2-yl)cyclobutyl)-1-methyl-1H-1,2,4-triazol-3-amine]	Mean AC1.4 (Table 5): D (D=>20 uM)
	N#Cc1ccc2nc(NCCc3ccc(F)cc3)sc2c1 [2-(4-fluorophenethylamino)benzo[d] thiazole-6-carbonitrile]	Mean AC1.4 (Table 4): D (D=>20 uM)
C (C=10-20 uM)	CC(=O)OCC(=O)NCCCc1nsc(NCC(C)(C)c2ccc(F)cc2)n1 [{N-[3-(5-{[2-(4-fluorophenyl)-2-methylpropyl]amino}-1,2,4-thiadiazol-3-yl)propyl]carbamoyl}methyl acetate]	
D (D=>20 uM)	CC(C)(CNc1nc(CN2CCC(O)CC2)ns1)c1ccc(F)cc1 [1-[(5-{[2-(4-fluorophenyl)-2-methylpropyl]amino}-1,2,4-thiadiazol-3-yl)methyl]piperidin-4-ol]	
	CC(C)(CNc1nc2cc(C(N)=O)ccc2s1)c1ccc(F)cc1 [2-(2-(4-fluorophenyl)-2-methylpropylamino)benzo[d] thiazole-5-carboxamide]	Mean AC1.4 (Table 4): B (B=1-10 uM)
B (B=1-10 uM)	CC(C)(CNc1nc(-c2cccnc2)ns1)c1ccc(F)cc1 [[2-(4-fluorophenyl)-2-methylpropyl](3-(3-pyridyl)(1,2,4-thiadiazol-5-yl))amine]	
D (D=>20 uM)	COc1cccc(Cc2nsc(NCc3ccc(Cl)cc3)n2)c1 [[(4-chlorophenyl)methyl]{3-[(3-methoxyphenyl)methyl](1,2,4-thiadiazol-5-yl)}amine]	
D (D=>20 uM)	CC(C)(C(=O)Nc1nc(-c2ccccc2)ns1)c1ccc(F)cc1 [2-(4-fluorophenyl)-2-methyl-N-(3-phenyl(1,2,4-thiadiazol-5-yl))propanamide]	
A (A=<1 uM)	CNC(=O)c1ccc(-c2nsc(NCC(C)(C)c3ccc(F)cc3)n2)cc1 [[4-(5-{[2-(4-fluorophenyl)-2-methylpropyl]amino}(1,2,4-thiadiazol-3-yl))phenyl]-N-methylcarboxamide]	
	CC(C)(CNc1nc2ccccc2s1)c1ccc(F)cc1 [N-(2-(4-fluorophenyl)-2-methylpropyl)benzo[d]thiazol-2-amine]	Mean AC1.4 (Table 4): B (B=1-10 uM)
D (D=>20 uM)	CC(C)(CNc1nc(CN2CCCC(O)C2)ns1)c1ccc(F)cc1 (centres unmarked) [1-[(5-{[2-(4-fluorophenyl)-2-methylpropyl]amino}-1,2,4-thiadiazol-3-yl)methyl]piperidin-3-ol]	
B (B=1-10 uM)	CCOC(=O)CCc1nsc(NCC(C)(C)c2ccc(F)cc2)n1 [ethyl 3-(5-{[2-(4-fluorophenyl)-2-methylpropyl]amino}-1,2,4-thiadiazol-3-yl)propanoate]	
D (D=>20 uM)	COC(=O)CNc1nc(-c2cccc(C#N)c2)ns1 [methyl 2-{[3-(3-cyanophenyl)-1,2,4-thiadiazol-5-yl]amino}acetate]	
D (D=>20 uM)	Oc1cccc(Cc2nsc(NCc3ccc(Cl)cc3)n2)c1 [3-[(5-{[(4-chlorophenyl)methyl]amino}-1,2,4-thiadiazol-3-yl)methyl]phenol]	
B (B=1-10 uM)	COc1cccc(Cc2nsc(NC[C@H](C)c3ccc(F)cc3)n2)c1 [[(2R)-2-(4-fluorophenyl)propyl]{3-[(3-methoxyphenyl)methyl](1,2,4-thiadiazol-5-yl)}amine]	
D (D=>20 uM)	NC(=O)c1cccc(-c2nsc(NCC3(c4ccc(F)cc4)CCNCC3)n2)c1 [3-[5-({[4-(4-fluorophenyl)-4-piperidyl]methyl}amino)-1,2,4-thiadiazol-3-yl]benzamide]	
	Fc1cccnc1[C@]1(CNc2nnc(-c3ccon3)s2)C[C@@H](F)C1 [N-((3-fluoro-1-(3-fluoropyridin-2-yl)cyclobutyl)methyl)-5-(isoxazol-3-yl)-1,3,4-thiadiazol-2-amine]	Mean AC1.4 (Table 3): C (C=10-20 uM)
C (C=10-20 uM)	Fc1ccc(Cc2nsc(NCCc3ccc(F)c(F)c3)n2)cc1 [[2-(3,4-difluorophenyl)ethyl]{3-[(4-fluorophenyl)methyl](1,2,4-thiadiazol-5-yl)}amine]	
	N#Cc1ccc(-c2nnc(NCC3(c4ncccc4F)CCC3)s2)cc1 [4-(5-((1-(3-fluoropyridin-2-yl)cyclobutyl)methylamino)-1,3,4-thiadiazol-2-yl)benzonitrile]	Mean AC1.4 (Table 3): D (D=>20 uM)
C (C=10-20 uM)	CC(C)(CNc1nc(CCC(N)=O)ns1)c1ccc(F)cc1 [3-(5-{[2-(4-fluorophenyl)-2-methylpropyl]amino}-1,2,4-thiadiazol-3-yl)propanamide]	
	CN(C)C(=O)c1ccc2nc(NCC(C)(C)c3ccc(F)cc3)sc2c1 [2-(2-(4-fluorophenyl)-2-methylpropylamino)-N,N-dimethylbenzo[d]thiazole-6-carboxamide]	Mean AC1.4 (Table 4): B (B=1-10 uM)

Mean AC1.4 (Table 2)	Compound	other results
	NC(=O)c1cccc(-c2nnc(NCC3(c4ncccc4F)CCC3)s2)c1 [3-(5-((1-(3-fluoropyridin-2-yl)cyclobutyl)methylamino)-1,3,4-thiadiazol-2-yl)benzamide]	Mean AC1.4 (Table 3): A (A=<1 uM)
B (B=1-10 uM)	CC(C)(CNc1nc(C(O)CO)ns1)c1ccc(F)cc1 (centres unmarked) [1-(5-{[2-(4-fluorophenyl)-2-methylpropyl]amino}-1,2,4-thiadiazol-3-yl)ethane-1,2-diol]	
	CC(C)(CNc1nc2cc(C#N)ccc2s1)c1ccc(F)cc1 [2-(2-(4-fluorophenyl)-2-methylpropylamino)benzo[d] thiazole-5-carbonitrile]	Mean AC1.4 (Table 4): B (B=1-10 uM)
	Cc1ccc(-c2nnc(NCC3(c4ncccc4F)CCC3)s2)cc1 [N-((1-(3-fluoropyridin-2-yl)cyclobutyl)methyl)-5-p-tolyl-1,3,4-thiadiazol-2-amine]	Mean AC1.4 (Table 3): B (B=1-10 uM)
D (D=>20 uM)	Fc1ccc(Cc2nsc(NCc3ccc(Cl)cc3)n2)cc1 [[(4-chlorophenyl)methyl]{3-[(4-fluorophenyl)methyl])1,2,4-thiadiazol-5-yl)}amine]	
D (D=>20 uM)	CC(C)(CNc1nc(CN2CC[C@H](O)C2)ns1)c1ccc(F)cc1 [(3S)-1-[(5-{[2-(4-fluorophenyl)-2-methylpropyl]amino}(1,2,4-thiadiazol-3-yl))methyl]pyrrolidin-3-ol]	
	Fc1cccnc1C1(CNc2nc3ccccc3s2)CCC1 [N-((1-(3-fluoropyridin-2-yl)cyclobutyl)methyl)benzo[d] thiazol-2-amine]	Mean AC1.4 (Table 4): C (C=10-20 uM)
	Fc1cccnc1C1(CNc2nc(-c3ccccc3)cs2)CCC1 [N-((1-(3-fluoropyridin-2-yl)cyclobutyl)methyl)-4-phenylthiazol-2-amine]	Mean AC1.4 (Table 5): B (B=1-10 uM)
D (D=>20 uM)	Fc1ccc(Cc2nsc(Nc3ccc(Cl)cc3)n2)cc1 [(4-chlorophenyl){3-[(4-fluorophenyl)methyl](1,2,4-thiadiazol-5-yl)}amine]	
C (C=10-20 uM)	CC(=O)NCc1nsc(NCC(C)(C)c2ccc(F)cc2)n1 [N-[(5-{[2-(4-fluorophenyl)-2-methylpropyl]amino}-1,2,4-thiadiazol-3-yl)methyl]acetamide]	
D (D=>20 uM)	CC(C)(CNc1nc(CN2CCN(C(=O)CO)CC2)ns1)c1ccc(F)cc1 [1-{4-[(5-{[2-(4-fluorophenyl)-2-methylpropyl]amino}(1,2,4-thiadiazol-3-yl))methyl]piperazinyl}-2-hydroxyethan-1-one]	
	N#Cc1cccc(-c2nnc(NCC3(c4ncccc4F)CCC3)s2)c1 [3-(5-((1-(3-fluoropyridin-2-yl)cyclobutyl)methylamino)-1,3,4-thiadiazol-2-yl)benzonitrile]	Mean AC1.4 (Table 3): B (B=1-10 uM)
	CC(C)(CNc1nc2cc(Cl)ccc2s1)c1ccc(F)cc1 [5-chloro-N-(2-(4-fluorophenyl)-2-methylpropyl)benzo[d]thiazol-2-amine]	Mean AC1.4 (Table 4): B (B=1-10 uM)
	NC(=O)c1ccc2nc(NCC3(c4ncccc4F)CCC3)sc2c1 [2-((1-(3-fluoropyridin-2-yl)cyclobutyl)methylamino)benzo[d] thiazole-6-carboxamide]	Mean AC1.4 (Table 4): B (B=1-10 uM)
D (D=>20 uM)	COc1cccc(Cc2nsc(NCCc3nc(C)cs3)n2)c1 [{3-[(3-methoxyphenyl)methyl](1,2,4-thiadiazol-5-yl)}[2-(4-methyl(1,3-thiazol-2-yl))ethyl]amine]	
	Cn1cc(-c2nnc(NCC3(c4ncccc4F)CCC3)s2)cn1 [N-((1-(3-fluoropyridin-2-yl)cyclobutyl)methyl)-5-(1-methyl-1H-pyrazol-4-yl)-1,3,4-thiadiazol-2-amine]	Mean AC1.4 (Table 3): D (D=>20 uM)
B (B=1-10 uM)	CC(C)(CNc1nc(-c2ccc(O)nc2)ns1)c1ccc(F)cc1 [5-(5-{[2-(4-fluorophenyl)-2-methylpropyl]amino}-1,2,4-thiadiazol-3-yl)pyridin-2-ol]	
B (B=1-10 uM)	COc1cccc(Cc2nsc(NCCc3ccc(F)cc3)n2)c1 [[2-(4-fluorophenyl)ethyl]{3-[(3-methoxyphenyl)methyl](1,2,4-thiadiazol-5-yl)}amine]	
A (A=<1 uM)	COc1ccc(Cc2nsc(NCC(C)(C)c3ccc(Cl)cc3)n2)cc1 [[2-(4-chlorophenyl)-2-methylpropyl]{3-[(4-methoxyphenyl)methyl](1,2,4-thiadiazol-5-yl)}amine]	
	COc1cccc(C2(CNc3nc4ccc(C(N)=O)cc4s3)CCC2)n1 [2-((1-(6-methoxypyridin-2-yl)cyclobutyl)methylamino)benzo[d] thiazole-6-carboxamide]	Mean AC1.4 (Table 4): B (B=1-10 uM)
D (D=>20 uM)	Fc1ccc(Cc2nsc(NCCc3cccnc3)n2)cc1 [{3-[(4-fluorophenyl)methyl](1,2,4-thiadiazol-5-yl)}(2-(3-pyridyl)ethyl)amine]	
A (A=<1 uM)	CC(C)(CNc1nc(-c2ccc(C(N)=O)cc2)ns1)c1ccc(F)cc1 [4-(5-{[2-(4-fluorophenyl)-2-methylpropyl]amino}-1,2,4-thiadiazol-3-yl)benzamide]	

Reference: patent US9278962B2 (Cytokinetics, Inc., priority 2011, dated 2016)
